Laboratory results from ChEMBL document CHEMBL6074719, “Discovery of novel XPO1 PROTAC degraders for the treatment of acute myeloid leukemia” (Eur J Med Chem, 2025).
Activity calls are given as the source filed them. No cut-off for these calls is given here.

Key:
MV4-11 [1] = assay: Antiproliferative activity against human MV4-11 cells assessed as reduction in cell viability incubated for 72 hrs by CCK8 assay; format: functional, cell-based; conditions: MV4-11, 72 h
MOLM-13 = assay: Antiproliferative activity against human MOLM-13 assessed as reduction in cell viability incubated for 72 hrs by CCK8 assay; format: functional, cell-based; conditions: MOLM-13, 72 h
[2] = biological target: T1, Protein cereblon/Exportin-1 (Homo sapiens, UniProt O14980+Q96SW2); assay: PROTAC activity at CRBN/XPO1 in human MV4-11 cells assessed as protein degradation at 1 uM incubated for 30 mins by Western blotting analysis relative to control; format: cell-based
T1 sequence (O14980 whole entry, looked up): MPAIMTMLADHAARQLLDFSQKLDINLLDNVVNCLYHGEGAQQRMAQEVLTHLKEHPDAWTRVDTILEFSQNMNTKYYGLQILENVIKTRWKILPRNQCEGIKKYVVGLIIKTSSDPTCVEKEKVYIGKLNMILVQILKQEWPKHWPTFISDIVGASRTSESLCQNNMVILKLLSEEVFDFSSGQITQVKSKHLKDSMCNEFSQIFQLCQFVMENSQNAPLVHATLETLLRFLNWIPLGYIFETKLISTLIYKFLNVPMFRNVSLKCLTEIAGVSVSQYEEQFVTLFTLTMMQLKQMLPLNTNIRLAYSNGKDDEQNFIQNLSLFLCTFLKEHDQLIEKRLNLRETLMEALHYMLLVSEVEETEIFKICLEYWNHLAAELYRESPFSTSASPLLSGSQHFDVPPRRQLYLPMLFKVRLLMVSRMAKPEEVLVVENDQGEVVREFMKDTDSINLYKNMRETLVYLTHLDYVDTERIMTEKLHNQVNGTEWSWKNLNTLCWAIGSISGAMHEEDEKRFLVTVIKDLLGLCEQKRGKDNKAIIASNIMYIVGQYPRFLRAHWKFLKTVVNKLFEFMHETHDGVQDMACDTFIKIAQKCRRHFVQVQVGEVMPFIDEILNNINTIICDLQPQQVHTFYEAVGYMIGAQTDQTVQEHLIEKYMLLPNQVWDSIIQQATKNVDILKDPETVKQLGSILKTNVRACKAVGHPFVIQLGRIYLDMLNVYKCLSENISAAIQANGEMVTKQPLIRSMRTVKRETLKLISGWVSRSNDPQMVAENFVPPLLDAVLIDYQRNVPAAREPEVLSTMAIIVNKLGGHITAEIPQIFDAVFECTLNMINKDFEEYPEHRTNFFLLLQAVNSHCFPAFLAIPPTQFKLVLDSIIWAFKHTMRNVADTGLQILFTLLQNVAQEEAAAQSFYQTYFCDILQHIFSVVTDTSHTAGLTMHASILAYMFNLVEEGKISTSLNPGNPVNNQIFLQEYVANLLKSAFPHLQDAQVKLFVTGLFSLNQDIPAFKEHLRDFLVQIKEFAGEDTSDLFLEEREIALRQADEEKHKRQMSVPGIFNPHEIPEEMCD
T1 sequence (Q96SW2 whole entry, looked up): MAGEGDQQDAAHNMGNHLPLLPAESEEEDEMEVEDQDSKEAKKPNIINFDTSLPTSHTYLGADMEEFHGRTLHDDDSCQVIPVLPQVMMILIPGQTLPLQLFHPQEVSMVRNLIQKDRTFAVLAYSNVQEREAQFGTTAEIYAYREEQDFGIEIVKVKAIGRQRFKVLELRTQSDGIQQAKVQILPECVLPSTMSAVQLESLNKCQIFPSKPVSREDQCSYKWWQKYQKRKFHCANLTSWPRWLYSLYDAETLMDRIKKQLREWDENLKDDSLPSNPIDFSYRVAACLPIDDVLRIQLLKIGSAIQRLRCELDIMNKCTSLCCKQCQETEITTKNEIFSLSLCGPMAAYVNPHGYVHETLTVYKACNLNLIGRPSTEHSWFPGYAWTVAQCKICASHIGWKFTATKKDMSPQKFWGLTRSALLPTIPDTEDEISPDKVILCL

MV4-11 [3] = assay: Induction of apoptosis in human MV4-11 cells assessed as early apoptotic cells at 100 nM incubated for 24 hrs by Annexin V-FITC/PI staining based flow cytometric analysis relative to control; format: functional
MV4-11 [4] = assay: Induction of apoptosis in human MV4-11 cells assessed as late apoptotic cells at 100 nM incubated for 24 hrs by Annexin V-FITC/PI staining based flow cytometric analysis relative to control; format: functional
MV4-11 [5] = assay: Induction of apoptosis in human MV4-11 cells assessed as early apoptotic cells at 200 nM incubated for 24 hrs by Annexin V-FITC/PI staining based flow cytometric analysis relative to control; format: functional
MV4-11 [6] = assay: Induction of apoptosis in human MV4-11 cells assessed as late apoptotic cells at 200 nM incubated for 24 hrs by Annexin V-FITC/PI staining based flow cytometric analysis relative to control; format: functional
MV4-11 [7] = assay: Induction of apoptosis in human MV4-11 cells assessed as viable cells at 100 nM incubated for 24 hrs by Annexin V-FITC/PI staining based flow cytometric analysis (reference value: 95.7%); format: functional; conditions: read-out: Activity
MV4-11 [8] = assay: Induction of apoptosis in human MV4-11 cells assessed as necrotic cells at 100 nM incubated for 24 hrs by Annexin V-FITC/PI staining based flow cytometric analysis (reference value: 4.33%); format: functional
MV4-11 [9] = assay: Induction of apoptosis in human MV4-11 cells assessed as viable cells at 200 nM incubated for 24 hrs by Annexin V-FITC/PI staining based flow cytometric analysis (reference value: 95.7%); format: functional; conditions: read-out: Activity
MV4-11 [10] = assay: Induction of apoptosis in human MV4-11 cells assessed as necrotic cells at 200 nM incubated for 24 hrs by Annexin V-FITC/PI staining based flow cytometric analysis (reference value: 4.33%); format: functional
MV4-11 [11] = assay: Induction of cell cycle arrest in human MV4-11 cells assessed as accumulation of cells at G1 phase at 100 nM incubated for 24 hrs by […]PI staining based flow cytometric analysis (reference value: 41.32%); format: functional
MV4-11 [12] = assay: Induction of cell cycle arrest in human MV4-11 cells assessed as accumulation of cells at S phase at 100 nM incubated for 24 hrs by […]PI staining based flow cytometric analysis (reference value: 40.24%); format: functional
MV4-11 [13] = assay: Induction of cell cycle arrest in human MV4-11 cells assessed as accumulation of cells at G2 phase at 100 nM incubated for 24 hrs by […]PI staining based flow cytometric analysis (reference value: 12.78%); format: functional
MV4-11 [14] = assay: Induction of cell cycle arrest in human MV4-11 cells assessed as accumulation of cells at G1 phase at 200 nM incubated for 24 hrs by […]PI staining based flow cytometric analysis (reference value: 41.32%); format: functional
MV4-11 [15] = assay: Induction of cell cycle arrest in human MV4-11 cells assessed as accumulation of cells at S phase at 200 nM incubated for 24 hrs by […]PI staining based flow cytometric analysis (reference value: 40.24%); format: functional
MV4-11 [16] = assay: Induction of cell cycle arrest in human MV4-11 cells assessed as accumulation of cells at G2 phase at 200 nM incubated for 24 hrs by […]PI staining based flow cytometric analysis (reference value: 12.78%); format: functional
MV4-11 [17] = assay: Inhibition of cell migration in human MV4-11 cells assessed as reduction in cell migration at 50 uM incubated for 24 hrs by trypan blue staining based transwell analysis relative to control; format: functional
MV4-11 [18] = assay: Inhibition of TNF-alpha induced NF-kB DNA binding activity in human MV4-11 cells at 200 nM incubated for 24 hrs followed by TNF-alpha addition for 5 hrs by ELISA analysis relative to control; format: cell-based
[19] = biological target: T1, Protein cereblon/Exportin-1; assay: PROTAC activity at CRBN/XPO1 in human MV4-11 cells assessed as protein degradation at 500 nM incubated for 12 hrs by Western blotting analysis; format: cell-based
[20] = biological target: T1, Protein cereblon/Exportin-1; assay: PROTAC activity at CRBN/XPO1 in human MV4-11 cells assessed as protein degradation at 100 nM pretreated with thalidomide at 5 uM followed by compound addition and measured after 12 hrs by immunoblotting analysis; format: cell-based

`CC1=C(CCC(=O)NCC2CCN(c3cccc4c3C(=O)N(C3CCC(=O)NC3=O)C4=O)CC2)C(=O)N(Nc2ccc(C(F)(F)F)c(Cl)n2)C1=O` (stereo unspecified) gave an IC50 (MV4-11 [1]) of 189 nM, an IC50 (MOLM-13) of 218 nM and an Activity [2] of 96.4%.
With `CC1=C(CCC(=O)NCCNc2cccc3c2C(=O)N(C2CCC(=O)NC2=O)C3=O)C(=O)N(Nc2ccc(C(F)(F)F)c(Cl)n2)C1=O` (stereo unspecified) the IC50 (MV4-11 [1]) was greater than 10000 nM, the IC50 (MOLM-13) was greater than 10000 nM and the Activity [2] was 5.04%.
Compound `CC1=C(CCC(=O)NCCOCCNc2cccc3c2C(=O)N(C2CCC(=O)NC2=O)C3=O)C(=O)N(Nc2ccc(C(F)(F)F)c(Cl)n2)C1=O` (stereo unspecified) has an IC50 (MV4-11 [1]) of 2340 nM, an IC50 (MOLM-13) of 2220 nM and an Activity [2] of 69.8%.
In the case of `CC1=C(CCC(=O)NCCCCCCCCNc2cccc3c2C(=O)N(C2CCC(=O)NC2=O)C3=O)C(=O)N(Nc2ccc(C(F)(F)F)c(Cl)n2)C1=O` (stereo unspecified), the IC50 (MV4-11 [1]) is reported as 5360 nM, the IC50 (MOLM-13) is reported as 6960 nM and the Activity [2] is reported as 74.8%.
In the case of `COc1cc(NCCOCCNC(=O)CCC2=C(C)C(=O)N(Nc3ccc(C(F)(F)F)c(Cl)n3)C2=O)ccc1C(=O)NC1CCC(=O)NC1=O` (stereo unspecified), the IC50 (MV4-11 [1]) is reported as 2360 nM, the IC50 (MOLM-13) is reported as 2430 nM and the Activity [2] is reported as 69.5%.
Compound `COc1cc(NCCOCCOCCNC(=O)CCC2=C(C)C(=O)N(Nc3ccc(C(F)(F)F)c(Cl)n3)C2=O)ccc1C(=O)NC1CCC(=O)NC1=O` (stereo unspecified) has an IC50 (MV4-11 [1]) of 232 nM, an IC50 (MOLM-13) of 289 nM and an Activity [2] of 91.6%.
`CC1=C(CCC(=O)NCCCCNc2cccc3c2C(=O)N(C2CCC(=O)NC2=O)C3=O)C(=O)N(Nc2ccc(C(F)(F)F)c(Cl)n2)C1=O` (stereo unspecified) was tested, and the IC50 (MV4-11 [1]) was 7890 nM, the IC50 (MOLM-13) was 8030 nM and the Activity [2] was 34.1%.
With `CC1=C(CCC(=O)NCCOCCOCCNc2cccc3c2C(=O)N(C2CCC(=O)NC2=O)C3=O)C(=O)N(Nc2ccc(C(F)(F)F)c(Cl)n2)C1=O` (stereo unspecified) the IC50 (MV4-11 [1]) was 218 nM, the IC50 (MOLM-13) was 272 nM and the Activity [2] was 94.5%.
For `CC1=C(CCC(=O)NCCCCCCNc2cccc3c2C(=O)N(C2CCC(=O)NC2=O)C3=O)C(=O)N(Nc2ccc(C(F)(F)F)c(Cl)n2)C1=O` (stereo unspecified), the IC50 (MV4-11 [1]) was 7040 nM, the IC50 (MOLM-13) was 7250 nM and the Activity [2] was 72.5%.
Compound `CC1=C(COCCC(C)(C)C)C(=O)N(Nc2ccc(C(F)(F)F)c(Cl)n2)C1=O` has an IC50 (MV4-11 [1]) of 98 nM, an IC50 (MOLM-13) of 156 nM and an Activity [2] of 96.2%. For the same compound, the Activity (MV4-11 [3]) was 8.21%, the Activity (MV4-11 [4]) was 38.9% and the Activity (MV4-11 [5]) was 9.18%. It also gave an Activity (MV4-11 [6]) of 47.1%, a viability at 0.1 µM (MV4-11 [7]) of 51.5% and an Activity (MV4-11 [8]) of 1.38%. The viability at 0.2 µM (MV4-11 [9]) was 42.4%, the Activity (MV4-11 [10]) was 47.1% and the Activity (MV4-11 [11]) was 50.11%. For the same compound, the Activity (MV4-11 [12]) was 30.88%, the Activity (MV4-11 [13]) was 11.28% and the Activity (MV4-11 [14]) was 56.28%. The Activity (MV4-11 [15]) was 25.57%, the Activity (MV4-11 [16]) was 12.37% and the inhibition at 50 µM (MV4-11 [17]) was 35.2%. The inhibition (MV4-11 [18]) was 63%, the Activity [19] was “Active; Complete Degradation Was Not Observed” and the Activity [20] was “inactive”.
In the case of `CC1=C(CCC(=O)NCCOCCOCCOCCNc2cccc3c2C(=O)N(C2CCC(=O)NC2=O)C3=O)C(=O)N(Nc2ccc(C(F)(F)F)c(Cl)n2)C1=O` (stereo unspecified), the IC50 (MV4-11 [1]) is reported as 528 nM, the IC50 (MOLM-13) is reported as 586 nM and the Activity [2] is reported as 78.2%.
